Experimental data from PubChem BioAssay (NCI).
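48-hour exposure; five concentrations; linearly interpolated endpoints. GI50: concentration for 50% inhibition of growth. TGI: concentration producing complete growth inhibition.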

Assays:
Test in all cases: NCI-60 cell line screen, 48 h
NCI-H23 lung = test system: NCI-H23 lung
NCI-H460 lung = test system: NCI-H460 lung
NCI-H522 lung = test system: NCI-H522 lung
NCI/ADR-RES ovarian = test system: NCI/ADR-RES ovarian
OVCAR-3 ovarian = test system: OVCAR-3 ovarian
OVCAR-4 ovarian = test system: OVCAR-4 ovarian
OVCAR-5 ovarian = test system: OVCAR-5 ovarian
OVCAR-8 ovarian = test system: OVCAR-8 ovarian
PC-3 prostate = test system: PC-3 prostate
RPMI-8226 leukemia = test system: RPMI-8226 leukemia
RXF 393 renal = test system: RXF 393 renal
SF-268 CNS = test system: SF-268 CNS
SF-295 CNS = test system: SF-295 CNS
SF-539 CNS = test system: SF-539 CNS
SK-MEL-2 melanoma = test system: SK-MEL-2 melanoma
SK-MEL-28 melanoma = test system: SK-MEL-28 melanoma
SK-MEL-5 melanoma = test system: SK-MEL-5 melanoma
SK-OV-3 ovarian = test system: SK-OV-3 ovarian
SN12C renal = test system: SN12C renal
SNB-19 CNS = test system: SNB-19 CNS
SNB-75 CNS = test system: SNB-75 CNS
SR leukemia = test system: SR leukemia
SW-620 colon = test system: SW-620 colon
T-47D breast = test system: T-47D breast
TK-10 renal = test system: TK-10 renal
U251 CNS = test system: U251 CNS
UACC-257 melanoma = test system: UACC-257 melanoma
UACC-62 melanoma = test system: UACC-62 melanoma
UO-31 renal = test system: UO-31 renal

## C#C[C@]1(O)CC[C@H]2[C@@H]3CC=C4c5sc(-c6cccc(O)c6)nc5CC[C@]4(C)[C@H]3CC[C@@]21C
NCI-H23 lung
  TGI: 3670 nM
NCI-H460 lung
  GI50: 2570 nM
  TGI: 7130 nM
NCI-H522 lung
  GI50: 1480 nM
  TGI: 3580 nM
NCI/ADR-RES ovarian
  GI50: 1950 nM
  TGI: 5580 nM
OVCAR-3 ovarian
  GI50: 2480 nM
  TGI: 7460 nM
OVCAR-4 ovarian
  GI50: 2730 nM
  TGI: 9520 nM
OVCAR-5 ovarian
  GI50: 2250 nM
  TGI: 5930 nM
OVCAR-8 ovarian
  GI50: 2100 nM
  TGI: > 100000 nM
PC-3 prostate
  GI50: 357 nM
  TGI: 1720 nM
RPMI-8226 leukemia
  GI50: 157 nM
  TGI: 725 nM
RXF 393 renal
  GI50: 177 nM
  TGI: 449 nM
SF-268 CNS
  GI50: 1990 nM
  TGI: 17500 nM
SF-295 CNS
  GI50: 178 nM
  TGI: 437 nM
SF-539 CNS
  GI50: 151 nM
  TGI: 538 nM
SK-MEL-2 melanoma
  GI50: 528 nM
  TGI: 2390 nM
SK-MEL-28 melanoma
  GI50: 236 nM
  TGI: 640 nM
SK-MEL-5 melanoma
  GI50: 1650 nM
  TGI: 3060 nM
SK-OV-3 ovarian
  GI50: 2070 nM
  TGI: 6830 nM
SN12C renal
  GI50: 2300 nM
  TGI: 9980 nM
SNB-19 CNS
  GI50: 1260 nM
  TGI: 4280 nM
SNB-75 CNS
  GI50: 319 nM
  TGI: 6100 nM
SR leukemia
  GI50: 460 nM
  TGI: > 100000 nM
SW-620 colon
  GI50: 653 nM
  TGI: 2360 nM
T-47D breast
  GI50: 2580 nM
  TGI: 7270 nM
TK-10 renal
  GI50: 2760 nM
  TGI: 9190 nM
U251 CNS
  GI50: 688 nM
  TGI: 2960 nM
UACC-257 melanoma
  GI50: 1860 nM
  TGI: 4630 nM
UACC-62 melanoma
  GI50: 2300 nM
  TGI: 5550 nM
UO-31 renal
  GI50: 460 nM
  TGI: 5750 nM
